Measurements as given in US8304206B2, “Mass spectrometry assays for identifying compounds that activate deacetylases” (Sirtris Pharmaceuticals, Inc., priority 2005, dated 2012).

Target: T1, SIRT1 (Homo sapiens, UniProt Q96EB6)
T1 sequence (Q96EB6 1-747): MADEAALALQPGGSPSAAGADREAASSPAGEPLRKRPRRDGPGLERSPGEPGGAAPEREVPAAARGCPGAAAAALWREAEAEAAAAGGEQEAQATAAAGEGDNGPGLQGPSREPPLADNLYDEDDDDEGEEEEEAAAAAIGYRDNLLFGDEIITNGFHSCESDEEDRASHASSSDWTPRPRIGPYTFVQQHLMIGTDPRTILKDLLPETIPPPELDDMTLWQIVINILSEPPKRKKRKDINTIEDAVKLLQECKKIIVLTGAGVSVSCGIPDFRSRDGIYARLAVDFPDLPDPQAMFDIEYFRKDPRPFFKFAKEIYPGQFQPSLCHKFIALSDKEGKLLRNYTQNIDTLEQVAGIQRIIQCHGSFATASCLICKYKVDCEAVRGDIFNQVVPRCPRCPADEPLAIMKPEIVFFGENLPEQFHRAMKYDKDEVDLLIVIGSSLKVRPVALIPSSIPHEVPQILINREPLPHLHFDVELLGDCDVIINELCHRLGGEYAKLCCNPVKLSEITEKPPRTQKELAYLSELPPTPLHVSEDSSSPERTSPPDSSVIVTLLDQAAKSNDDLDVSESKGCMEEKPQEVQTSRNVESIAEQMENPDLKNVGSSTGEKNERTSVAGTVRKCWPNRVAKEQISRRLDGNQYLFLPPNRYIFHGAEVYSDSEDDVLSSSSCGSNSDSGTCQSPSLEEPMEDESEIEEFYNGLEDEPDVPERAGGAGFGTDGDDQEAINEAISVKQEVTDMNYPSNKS
Test: SIRT1 mass spectrometry assay (screening for activation)
Format: biochemical
Conditions: for FOLD ACTIVATION MS: activation of SIRT1, mass spectrometry; for EC50: activation of SIRT1, 0.5 μM peptide substrate (SEQ ID NO: 34), 120 μM NAD+, 10 nM SIRT1, 25 min, read-out: ED50 MS ASSAY

COc1cc(C(=O)Nc2ccccc2-c2cn3cc(CN(C)C)sc3n2)cc(OC)c1OC [compound 179]
FOLD ACTIVATION MS: A (Fold activation>250%) | EC50: < 50 µM

CN(C)c1cccc(C(=O)Nc2ccc(-c3nc4cccnc4[nH]3)cc2)c1 [compound 180]
FOLD ACTIVATION MS: B (Fold Activation<250%)

COc1ccc(C(=O)Nc2cccc(-c3nc4cccnc4[nH]3)c2)c(OC)c1OC [compound 181]
FOLD ACTIVATION MS: A (Fold activation>250%) | EC50: < 50 µM

COc1cc(C)ccc1C(=O)Nc1cccc(-c2nc3cccnc3[nH]2)c1 [compound 182]
FOLD ACTIVATION MS: A (Fold activation>250%) | EC50: < 50 µM

CN(C)c1cccc(C(=O)Nc2cccc(-c3nc4ncccc4[nH]3)c2)c1 [compound 183]
FOLD ACTIVATION MS: A (Fold activation>250%)

COc1ccc(C(=O)Nc2cccc(-c3nc4ncccc4[nH]3)c2)c(OC)c1 [compound 184]
FOLD ACTIVATION MS: B (Fold Activation<250%) | EC50: < 50 µM

COc1ccc(C(=O)Nc2cccc(-c3nc4cccnc4[nH]3)c2)cc1OC [compound 185]
FOLD ACTIVATION MS: A (Fold activation>250%) | EC50: < 50 µM

COc1cc(C)ccc1C(=O)Nc1ccc(-c2cc3cccnc3o2)cc1 [compound 187]
FOLD ACTIVATION MS: B (Fold Activation<250%)

COc1ccc(C(=O)Nc2ccc(-c3cc4cccnc4o3)cc2)c(OC)c1 [compound 190]
FOLD ACTIVATION MS: B (Fold Activation<250%) | EC50: < 50 µM

COc1ccc(C(=O)Nc2cccc(-c3cc4cccnc4o3)c2)c(OC)c1 [compound 191]
FOLD ACTIVATION MS: B (Fold Activation<250%) | EC50: < 50 µM

COc1ccc(C(=O)Nc2cccc(-c3cc4cccnc4o3)c2)cc1OC [compound 192]
FOLD ACTIVATION MS: B (Fold Activation<250%)

CN(C)c1cccc(C(=O)Nc2ccc(-c3nc4ncccc4s3)cc2)c1 [compound 196]
FOLD ACTIVATION MS: B (Fold Activation<250%)

COc1ccc(C(=O)Nc2ccc(-c3nc4ncccc4s3)cc2)cc1OC [compound 197]
FOLD ACTIVATION MS: B (Fold Activation<250%) | EC50: < 50 µM

COc1ccc(C(=O)Nc2cccc(-c3nc4ncccc4s3)c2)c(OC)c1OC [compound 198]
FOLD ACTIVATION MS: B (Fold Activation<250%)

COc1cc(C)ccc1C(=O)Nc1cccc(-c2nc3ncccc3s2)c1 [compound 199]
FOLD ACTIVATION MS: B (Fold Activation<250%) | EC50: < 50 µM

CN(C)c1cccc(C(=O)Nc2cccc(-c3nc4ncccc4s3)c2)c1 [compound 200]
FOLD ACTIVATION MS: B (Fold Activation<250%) | EC50: < 50 µM

COc1ccc(C(=O)Nc2cccc(-c3nc4ncccc4s3)c2)cc1OC [compound 201]
FOLD ACTIVATION MS: B (Fold Activation<250%)

COc1ccc(C(=O)Nc2cccc(-c3nc4ncccc4s3)c2)c(OC)c1 [compound 202]
FOLD ACTIVATION MS: B (Fold Activation<250%) | EC50: < 50 µM

COc1ccc(C(=O)Nc2ccccc2-c2cn3ccsc3n2)cc1OC [compound 203]
FOLD ACTIVATION MS: B (Fold Activation<250%) | EC50: < 50 µM

COc1cc(C(=O)Nc2ccccc2-c2cn3ccsc3n2)cc(OC)c1OC [compound 204]
FOLD ACTIVATION MS: A (Fold activation>250%) | EC50: < 50 µM

COc1ccc(C(=O)Nc2ccccc2-c2cn3c(CN(C)C)csc3n2)cc1OC [compound 205]
FOLD ACTIVATION MS: A (Fold activation>250%)

COc1cc(C(=O)Nc2ccccc2-c2cn3c(CN(C)C)csc3n2)cc(OC)c1OC [compound 206]
FOLD ACTIVATION MS: A (Fold activation>250%)

COc1ccc(C(=O)Nc2ccccc2-c2cn3c(CN4CCNCC4)csc3n2)cc1OC [compound 207]
FOLD ACTIVATION MS: A (Fold activation>250%)

COc1cc(C(=O)Nc2ccccc2-c2cn3c(CN4CCNCC4)csc3n2)cc(OC)c1OC [compound 208]
FOLD ACTIVATION MS: A (Fold activation>250%)

COc1ccc(C(=O)Nc2ccccc2-c2cn3c(CN4CCOCC4)csc3n2)cc1OC [compound 209]
FOLD ACTIVATION MS: A (Fold activation>250%)

COc1cc(C(=O)Nc2ccccc2-c2cn3c(CN4CCOCC4)csc3n2)cc(OC)c1OC [compound 210]
FOLD ACTIVATION MS: B (Fold Activation<250%)

COc1ccc(C(=O)Nc2cccc(-c3nc4ccccc4[nH]3)c2)c(OC)c1 [compound 211]
FOLD ACTIVATION MS: B (Fold Activation<250%) | EC50: < 50 µM

COc1cccc(C(=O)Nc2cccc(-c3nc4cccnc4s3)c2)c1 [compound 212]
FOLD ACTIVATION MS: B (Fold Activation<250%)

COc1ccc(C(=O)Nc2cccc(-c3nc4cccnc4s3)c2)c(OC)c1 [compound 213]
FOLD ACTIVATION MS: B (Fold Activation<250%) | EC50: < 50 µM

COc1cccc(C(=O)Nc2cccc(-c3nc4cccnc4s3)c2)c1OC [compound 214]
FOLD ACTIVATION MS: B (Fold Activation<250%)

COc1cc(OC)cc(C(=O)Nc2cccc(-c3nc4cccnc4s3)c2)c1 [compound 215]
FOLD ACTIVATION MS: B (Fold Activation<250%) | EC50: < 50 µM

COc1ccc(C(=O)Nc2cccc(-c3nc4cccnc4s3)c2)cc1 [compound 216]
FOLD ACTIVATION MS: B (Fold Activation<250%) | EC50: < 50 µM

COc1cc(C(=O)Nc2cccc(-c3nc4cccnc4s3)c2)cc(OC)c1OC [compound 217]
FOLD ACTIVATION MS: A (Fold activation>250%) | EC50: < 50 µM

COc1cc(C(=O)Nc2cccc(-c3cn4cccnc4n3)c2)cc(OC)c1OC [compound 218]
FOLD ACTIVATION MS: A (Fold activation>250%) | EC50: < 50 µM

COc1cc(C(=O)Nc2cccc(-c3nc4ncccn4c3C)c2)cc(OC)c1OC [compound 219]
FOLD ACTIVATION MS: A (Fold activation>250%)

O=C(Nc1cccc(-c2nc3ccncc3s2)c1)c1ccco1 [compound 221]
FOLD ACTIVATION MS: B (Fold Activation<250%)

O=C(Nc1cccc(-c2nc3ccncc3s2)c1)c1cccnc1Cl [compound 222]
FOLD ACTIVATION MS: B (Fold Activation<250%)

O=C(Nc1cccc(-c2nc3ccncc3s2)c1)c1cccs1 [compound 223]
FOLD ACTIVATION MS: B (Fold Activation<250%) | EC50: < 50 µM

Cc1cc(C(=O)Nc2cccc(-c3nc4ccncc4s3)c2)n(C(C)(C)C)n1 [compound 228]
FOLD ACTIVATION MS: A (Fold activation>250%)

O=C(Nc1cccc(-c2nc3ccncc3s2)c1)c1cnn(-c2ccccc2)c1C(F)(F)F [compound 238]
FOLD ACTIVATION MS: B (Fold Activation<250%) | EC50: < 50 µM

O=S(=O)(Nc1cccc(-c2nc3ccncc3s2)c1)c1ccc(OC(F)(F)F)cc1 [compound 239]
FOLD ACTIVATION MS: B (Fold Activation<250%) | EC50: < 50 µM

O=C(Nc1cccc(-c2nc3ccncc3s2)c1)c1ccc(-c2ccccc2)o1 [compound 241]
FOLD ACTIVATION MS: B (Fold Activation<250%) | EC50: < 50 µM

O=C(Nc1cccc(-c2nc3ccncc3s2)c1)c1ccccc1Oc1ccccc1 [compound 245]
FOLD ACTIVATION MS: B (Fold Activation<250%) | EC50: < 50 µM

Cn1nc(C(C)(C)C)cc1C(=O)Nc1cccc(-c2nc3ccncc3s2)c1 [compound 246]
FOLD ACTIVATION MS: B (Fold Activation<250%) | EC50: < 50 µM

O=C(Nc1cccc(-c2nc3ccncc3s2)c1)c1cc(C(F)(F)F)ccc1C(F)(F)F [compound 248]
FOLD ACTIVATION MS: B (Fold Activation<250%)

COc1ccc(C(=O)Nc2ccccc2-c2cc3ccccc3[nH]2)cc1OC [compound 254]
FOLD ACTIVATION MS: B (Fold Activation<250%) | EC50: < 50 µM

COc1cc(C(=O)Nc2ccccc2-c2cc3ccccc3[nH]2)cc(OC)c1OC [compound 255]
FOLD ACTIVATION MS: B (Fold Activation<250%) | EC50: < 50 µM
